Entries after “also recorded” stand apart in the source; their conditions may differ.
How the values were obtained:
[1] = tested on: Human umbilical vein endothelial cells (HUVEC); assay: Nitric oxide production by HUVEC (nitrite in culture medium, Griess reaction); assay type: cell-based; conditions: for production of nitric oxide by HUVEC (in words): 48 hour incubation
Protocol: The culture medium used was Medium 200 (Cascade Biologics Inc.) supplemented with Low Serum Growth Supplement (Cascade Biologics Inc.) and 20% fetal calf serum (DAP).
The cocoa procyanidins evaluated were the epicatechin monomer, the dimer, the trimer, the tetramer, the pentamer, and the heptamer. The nitrite content of cocoa procyanidins were evaluated. At the maximal concentration used (100 ? g/ml), no nitrite was detected.
Human umbilical vein endothelial cells (HUVEC) were purchased at primary culture stage from Cascade Biologics Inc. (Portland). Cells were cultured in Medium supplemented with Low Serum Growth Supplement (LSGS) and 20% Fetal Calf Serum (FCS) in 75 cm^2 flasks. The cells were seeded for a week following treatment with trypsin-EDTA (2 ml/flask) at 37° C. under 5% CO2 atmosphere. Trypsin was neutralized upon addition of 3 ml. FCS.
The cell suspension was centrifuged for 10 min. at 1200 rpm and the cell pellet was resuspended in the culture medium described above.
Nitric oxide synthase activity was assessed by measuring the nitrite concentration in the culture medium. HUVEC were used between passage 2 to 13. Cells were cultured in 24-well culture plates at the concentration of 5×10^5 cells ml in Medium 200 containing LSGS (300 μl per well), and 20% CS. After a 24 hour to 48 hour incubation period at 37° C. under a 5% CO2 atmosphere, the cells were used confluent (2.5×10^6 cells). Medium was removed and fresh was added.
Cocoa procyanidin monomer and oligomers were added to the culture medium at 100 μg/ml, 10 μg/ml or 1 μg/ml (final concentration). Controls consisted of cells cultured without the procyanidins. Reference compounds included acetylcholine, ionomycin (NO synthase stimulator via calcium entry), lipopolysaccharide (NO synthase inductor), and N-methyl L-arginine acetate (inhibitor of NO synthase). The reference compounds were used in order to evidence nitrite production from endothelial NO synthesis.
NO production was estimated by measurement of nitrite (NO2) concentration in culture supernatants according to the Griess reaction. Briefly, 50 μl of conditional medium were incubated with 150 μl of Griess reagent (1% sulfanilamide in 30% acetic acid/0.1% N-(1-naphtyl)-ethylenediamine dihydrochloride in 60% acetic acid) at room temperature for 2 min. The absorbance at 540 nm was determined in a Labsystems MCC/340 multiskan. Nitrite concentration was determined by using sodium nitrite as standard and analyzed using ΔSOFT 2.12 software. The cell-free medium and 100 μg/ml of procyanidins contained no detectable nitrite concentrations.
Raw Data^1: Showing the Effect of Cocoa Procyanidins On Nitric Oxide Production by HUVEC ^1Results are expressed as μmol nitrite/10^6 cells/48 h

[2] = tested on: Aortic rings from New Zealand white rabbits; assay: Endothelium dependent relaxation of pre-contracted rabbit aortic rings in organ baths
Protocol: Aortic rings from New Zealand white rabbits were set up in 20 ml organ baths. […] The cocoa procyanidins tested were the monomer, dimer, trimer, tetramer, pentamer, hexamer.
Rings were incubated for 30′ with these cocoa procyanidins (10^−5M) and re-tested with Ach and cocoa procyanidins (10^−7 to 10^−4). Incubation of the tissue with these cocoa procyanadin(s) attenuated EDR evoked by both the cocoa procyanidins and Ach acutely. The maximum relaxation to Ach pre-incubation, 49±5%; post pentamer incubation, 2±1.4%; post combo 2 incubation, 0.8±0.8%: to pentamer pre-incubation, 46.5±4.5%; post incubation, 6.8±3.2%: to combo 2 pre-incubation, 54.3±7%; post incubation, 1.7±1.1%, n=5).

[3] = tested on: arterial blood pressure of anesthetized guinea-pigs; assay: Arterial blood pressure of anesthetized guinea-pigs after intravenous injection; assay type: in vivo; conditions: for Hypertension (%)* Exp 1 / Hypertension (%)* Exp 2 / Hypertension (%)* Exp 3 / Hypertension (%)* Exp 4 / Hypertension (%)* Exp 5 / Hypertension (%)* Exp 6: % of control mean arterial blood pressure
Protocol: Guinea-pigs (around 400 g body weight, male and female) were anesthetized upon injection of 40 mg/kg sodium pentobarbital. The carotid artery was canulated for monitoring of the arterial blood pressure through a Gould pressure transducer (Model P500). Each of the six cocoa procyanidins, at concentrations of 1, 3, 10, and 25 mg/kg, was injected intravenously through the jugular vein. Alterations in blood pressure were recorded on a polygraph.
No marked effect of the vehicle containing DMSO was noted when the dose of 25 mg/kg of the cocoa procyanidin was used (15±5%).
The effects of administering of 1, 3, 10, or 25 mg/kg cocoa procyanidins on arterial blood pressure of anesthetized guinea-pigs was investigated. Upon intravenous injection, the procyanidins monomer and dimer evoked a decrease in blood pressure of about 20%, i.e., not markedly different from injection of solvent alone (15±5%, n=5). […] The rank of potency of the various cocoa procyanidins, considering the highest dose used, was as follows: hexamer=tetramer>pentamer>trimer.

[4] = preliminary experiments, single dose 10^−5 M, rings pre-contracted with norepinephine 10^−5 M

## C[C@H](CCC(=O)O)C[C@H](C)C[C@H](C)C(=O)/C=C(\O)[C@H](C)C[C@H](C)C/C=C/[C@@H](C)[C@@H](O)[C@@H](C)[C@@H](O)C[C@@H]1CC[C@@](C)([C@H]2CC[C@@](C)([C@@H](C)O)O2)O1 [Ionomycin, ionomycin, reference compound]
[1]; 1 μM
  production of nitric oxide by HUVEC (in words): marked production of nitric oxide
[1]; Ionomycin 1 μM
  Nitric Oxide Production by HUVEC, Exp. 1: 7.8 μmol nitrite/10^6 cells/48 h
  Nitric Oxide Production by HUVEC, Exp. 2: 6.3 μmol nitrite/10^6 cells/48 h
  Nitric Oxide Production by HUVEC, Exp. 3: 5.4 μmol nitrite/10^6 cells/48 h
  Nitric Oxide Production by HUVEC, Mean: 6.5 μmol nitrite/10^6 cells/48 h

## CC(=O)OCC[N+](C)(C)C [Acetylcholine, acetylcholine]
[1]; Acetylcholine 10^−5 M
  Nitric Oxide Production by HUVEC, Exp. 1: 2.5 μmol nitrite/10^6 cells/48 h
  Nitric Oxide Production by HUVEC, Exp. 2: 2.6 μmol nitrite/10^6 cells/48 h
  Nitric Oxide Production by HUVEC, Exp. 3: 2.8 μmol nitrite/10^6 cells/48 h
  Nitric Oxide Production by HUVEC, Mean: 2.6 μmol nitrite/10^6 cells/48 h
[2]; acute exposure, dose 10^−5 M
  % Relaxation: 49 ± 5.1%
[2]; acute exposure, dose 10^−6 M
  % Relaxation: 42.2 ± 4.2%
[2]; acute exposure, dose 10^−7 M
  % Relaxation: 15.2 ± 2.6%
[2]; pre-incubation, n=5
  maximum relaxation to Ach: 49±5%
[2]; [4]
  % Relaxation: 68%

## lipopolysaccharide [LPS, reference compound]
[1]; 100 ng/ml
  production of nitric oxide by HUVEC (in words): marked production of nitric oxide
[1]; LPS 100 mg/ml
  Nitric Oxide Production by HUVEC, Mean: 14.4 μmol nitrite/10^6 cells/48 h
[1]; LPS 100
  Nitric Oxide Production by HUVEC, Exp. 1: 15.6 μmol nitrite/10^6 cells/48 h
  Nitric Oxide Production by HUVEC, Exp. 2: 14.3 μmol nitrite/10^6 cells/48 h
  Nitric Oxide Production by HUVEC, Exp. 3: 13.2 μmol nitrite/10^6 cells/48 h

## Oc1cc(O)c2c(c1)O[C@H](c1ccc(O)c(O)c1)[C@H](O)C2 [Monomer, epicatechin]
[1]; 1, 10, 100 μg/ml
  production of NO from HUVEC, dose dependence (in words): marked production but only at 100 μg/ml concentration
[1]; cocoa procyanidin 1 μg/ml
  Nitric Oxide Production by HUVEC, Exp. 1: 2.3 μmol nitrite/10^6 cells/48 h
  Nitric Oxide Production by HUVEC, Exp. 2: 2.5 μmol nitrite/10^6 cells/48 h
  Nitric Oxide Production by HUVEC, Exp. 3: 2.6 μmol nitrite/10^6 cells/48 h
  Nitric Oxide Production by HUVEC, Mean: 2.5 μmol nitrite/10^6 cells/48 h
[1]; cocoa procyanidin 10 μg/ml
  Nitric Oxide Production by HUVEC, Exp. 1: 2.7 μmol nitrite/10^6 cells/48 h
  Nitric Oxide Production by HUVEC, Exp. 2: 2.8 μmol nitrite/10^6 cells/48 h
  Nitric Oxide Production by HUVEC, Exp. 3: 2.6 μmol nitrite/10^6 cells/48 h
  Nitric Oxide Production by HUVEC, Mean: 2.7 μmol nitrite/10^6 cells/48 h
[1]; cocoa procyanidin 100 μg/ml
  Nitric Oxide Production by HUVEC, Exp. 1: 5.4 μmol nitrite/10^6 cells/48 h
  Nitric Oxide Production by HUVEC, Exp. 2: 5.9 μmol nitrite/10^6 cells/48 h
  Nitric Oxide Production by HUVEC, Exp. 3: 5.7 μmol nitrite/10^6 cells/48 h
  Nitric Oxide Production by HUVEC, Mean: 5.7 μmol nitrite/10^6 cells/48 h
[1]; highest dose used, 100 μg/ml
  potency of the various procyanidins, NO production (rank): dimer>trimer>heptamer=pentmer=tetramer>monomer; also recorded: dimer>trimer>hexamer=pentamer=tetramer>monomer
[3]; 1 mg/kg intravenously
  Hypertension (%)* Exp 1: 55.32%
  Hypertension (%)* Exp 2: 70.31%
  Hypertension (%)* Exp 3: 70.27%
  Hypertension (%)* Exp 4: 75.99%
  Hypertension (%)* Exp 5: 71.92%
  Hypertension (%)* Exp 6: 77.97%
[3]; 3 mg/kg intravenously
  Hypertension (%)* Exp 1: 62.99%
  Hypertension (%)* Exp 2: 72.62%
  Hypertension (%)* Exp 3: 74.59%
  Hypertension (%)* Exp 4: 73.33%
  Hypertension (%)* Exp 5: 76.04%
  Hypertension (%)* Exp 6: 70.44%
[3]; 10 mg/kg intravenously
  Hypertension (%)* Exp 1: 58.95%
  Hypertension (%)* Exp 2: 66.53%
  Hypertension (%)* Exp 3: 70.06%
  Hypertension (%)* Exp 4: 65.79%
  Hypertension (%)* Exp 5: 70.69%
  Hypertension (%)* Exp 6: 66.21%
[3]; 25 mg/kg intravenously
  Hypertension (%)* Exp 1: 46.93%
  Hypertension (%)* Exp 2: 55.14%
  Hypertension (%)* Exp 3: 63.08%
  Hypertension (%)* Exp 4: 53.95%
  Hypertension (%)* Exp 5: 65.91%
  Hypertension (%)* Exp 6: 58.66%
[3]; considering the highest dose used
  rank of potency of the various cocoa procyanidins, hypotension: hexamer=tetramer>pentamer>trimer>dimer=monomer
[3]; intravenous injection, solvent alone 15±5%
  decrease in blood pressure: about 20%
[2]; [4]
  % Relaxation: 0%

## CC(=O)O.CN[C@@H](CCCNC(=N)N)C(=O)O [LNMA, N-methyl L-arginine acetate, reference compound]
[1]; N-methyl L-arginine added to the incubation medium
  production of nitric oxide by HUVEC evoked by ionomycin and lipolysaccharide (in words): blocked
